Experimental data: US20200375980A1, “VETERINARY ANTIPROLACTINIC COMPOSITION” (CEVA SANTE ANIMALE, priority 2018, published 2020)

Tested on: Primiparous sows
Experiment: Proof of concept study, WOI (weaning to oestrus interval) in primiparous sows
Type: in vivo, Sus scrofa domesticus
Procedure: All sows included in this study were recruited from a single farm having an historical mean of WOI of 5.4 days, and a percentage of delayed oestrus (8 days) of 7.9%. Weaning was set after about 3 weeks of lactation. Primiparous sows (with normal health status and normal farrowing) were allocated into three groups: Cab_0 (n=19 sows): 5.6 μg/kg of cabergoline by intramuscular injection at weaning day (day 0) in sows, i.e. at the end of lactation, without suckling piglets. Cab_2 (n=30 sows): 5.6 μg/kg of cabergoline by intramuscular injection 2 days before weaning (day-2) in sows, i.e. lactation still pending with suckling piglets. Negative control group (n=29 sows): equivalent dose/volume of a ‘true’ placebo by intramuscular injection at Day-2 and day 0.

[1] = group Cab_0: 5.6 μg/kg intramuscular at weaning day (day 0)
[2] = group Cab_0: 5.6 μg/kg intramuscular at weaning day (day 0), n=19 sows
[3] = group Cab_2: 5.6 μg/kg intramuscular 2 days before weaning (day-2), n=30 sows

C=CCN1C[C@H](C(=O)N(CCCN(C)C)C(=O)NCC)C[C@@H]2c3cccc4[nH]cc(c34)C[C@H]21 [cabergoline, 1-[(6-allylergolin-8ß-yl)-carbonyl]-1-[3-(dimethylamino)propyl]-3-ethylurea]
impact of the treatment on fertility (all sows diagnosed positively pregnant after artificial insemination following oestrus detection, Cab_0 and Cab_2 groups): no negative impact
sows exhibiting delayed oestrus (after or equal 8 days), number of sows per group [1]: 1/19
sows exhibiting delayed oestrus (after or equal 8 days), percentage [1]: 5.3%
number of sows in heats, WOI 8-14 days [2]: 1
number of sows in heats, WOI 3 days [2]: 1
number of sows in heats, WOI 4 days [2]: 6
number of sows in heats, WOI 5 days [2]: 8
number of sows in heats, WOI 6 days [2]: 2
number of sows in heats, WOI 7 days [2]: 1
delayed oestrus (after or equal 8 days) (group Cab_2: 5.6 μg/kg intramuscular 2 days before weaning (day-2)): no delayed oestrus
number of sows in heats, WOI 3 days [3]: 2
number of sows in heats, WOI 4 days [3]: 13
number of sows in heats, WOI 5 days [3]: 10
number of sows in heats, WOI 6 days [3]: 5
number of sows in heats, WOI 7 days [3]: 0
